Experimental data published in PubChem BioAssay (NCI).
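Where inhibition never reached the appropriate level, the endpoint shown equals the highest concentration tested. Otherwise, values were interpolated linearly from a five-concentration, 48-hour dose response in 96-well plates. GI50: concentration for 50% inhibition of growth. The concentration for full growth arrest is given as TGI.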

What was measured:
Test in all cases: NCI anticancer screen, dose series, 48 h
[1] = tested on: SNB-75 CNS
[2] = tested on: SNB-19 CNS
[3] = tested on: MDA-MB-435
[4] = tested on: PC-3 prostate
[5] = tested on: U251 CNS
[6] = tested on: K-562 leukemia
[7] = tested on: OVCAR-5 ovarian
[8] = tested on: CCRF-CEM leukemia
[9] = tested on: CAKI-1 renal
[10] = tested on: UACC-62 melanoma
[11] = tested on: DU-145 prostate
[12] = tested on: RXF 393 renal
[13] = tested on: TK-10 renal
[14] = tested on: SK-OV-3 ovarian
[15] = tested on: MALME-3M melanoma
[16] = tested on: HCT-15 colon
[17] = tested on: NCI-H226 lung
[18] = tested on: MOLT-4 leukemia
[19] = tested on: 786-0 renal
[20] = tested on: M14 melanoma
[21] = tested on: HL-60(TB) leukemia
[22] = tested on: SK-MEL-28 melanoma
[23] = tested on: KM12 colon
[24] = tested on: COLO 205 colon
[25] = tested on: NCI-H522 lung
[26] = tested on: HCC-2998 colon
[27] = tested on: OVCAR-4 ovarian
[28] = tested on: OVCAR-3 ovarian
[29] = tested on: HS 578T breast
[30] = tested on: UACC-257 melanoma
[31] = tested on: HT29 colon
[32] = tested on: OVCAR-8 ovarian
[33] = tested on: T-47D breast
[34] = tested on: ACHN renal
[35] = tested on: LOX IMVI melanoma
[36] = tested on: NCI/ADR-RES ovarian
[37] = tested on: SF-539 CNS
[38] = tested on: NCI-H23 lung
[39] = tested on: BT-549 breast
[40] = tested on: SK-MEL-5 melanoma
[41] = tested on: SN12C renal
[42] = tested on: A498 renal
[43] = tested on: HOP-62 NSCLC
[44] = tested on: SK-MEL-2 melanoma
[45] = tested on: MCF7 breast
[46] = tested on: RPMI-8226 leukemia
[47] = tested on: A549 NSCLC
[48] = tested on: IGROV1 ovarian
[49] = tested on: SW-620 colon
[50] = tested on: SF-295 CNS
[51] = tested on: NCI-H460 lung
[52] = tested on: SR leukemia
[53] = tested on: HOP-92 NSCLC
[54] = tested on: UO-31 renal
[55] = tested on: SF-268 CNS
[56] = tested on: MDA-MB-231 breast
[57] = tested on: HCT-116 colon

For `C/C(=C1\SC(=NCc2cccs2)NC1=O)c1ccc2ncccc2c1`, the GI50 [1] was 3.93 µM, the TGI [1] was over 23.3 µM and the GI50 [2] was 13.6 µM. The TGI [2] was over 25 µM, the GI50 [3] was 7.55 µM and the TGI [3] was over 25 µM. The GI50 [4] was 12.7 µM, the TGI [4] was over 25 µM and the GI50 [5] was 11.7 µM. For the same compound, the TGI [5] was over 25 µM, the GI50 [6] was 8.71 µM and the TGI [6] was over 25 µM. The GI50 [7] was over 25 µM, the TGI [7] was over 25 µM and the GI50 [8] was 10.2 µM. It also gave a TGI [8] of over 25 µM, a GI50 [9] of 11.1 µM and a TGI [9] of over 25 µM. It also gave a GI50 [10] of over 19.3 µM, a TGI [10] of over 25 µM and a GI50 [11] of over 25 µM. The TGI [11] was over 25 µM, the GI50 [12] was over 25 µM and the TGI [12] was over 25 µM. The GI50 [13] was over 25 µM, the TGI [13] was over 25 µM and the GI50 [14] was over 25 µM. The TGI [14] was over 25 µM, the GI50 [15] was over 25 µM and the TGI [15] was over 25 µM. The GI50 [16] was 10.9 µM, the TGI [16] was over 25 µM and the GI50 [17] was 21.5 µM. It also gave a TGI [17] of over 25 µM, a GI50 [18] of 9.56 µM and a TGI [18] of over 25 µM. For the same compound, the GI50 [19] was over 23.1 µM, the TGI [19] was over 25 µM and the GI50 [20] was 13.9 µM. The TGI [20] was over 25 µM, the GI50 [21] was 9.36 µM and the TGI [21] was over 25 µM. The GI50 [22] was over 25 µM, the TGI [22] was over 25 µM and the GI50 [23] was 13.1 µM. The TGI [23] was over 25 µM, the GI50 [24] was 12.4 µM and the TGI [24] was over 25 µM. The GI50 [25] was 8.56 µM, the TGI [25] was over 25 µM and the GI50 [26] was over 25 µM. The TGI [26] was over 25 µM, the GI50 [27] was 18.1 µM and the TGI [27] was over 25 µM. It also gave a GI50 [28] of 18.1 µM, a TGI [28] of over 25 µM and a GI50 [29] of 9.15 µM. The TGI [29] was over 25 µM, the GI50 [30] was over 25 µM and the TGI [30] was over 25 µM. For the same compound, the GI50 [31] was 10.9 µM, the TGI [31] was over 25 µM and the GI50 [32] was 14.7 µM. The TGI [32] was over 25 µM, the GI50 [33] was 15.1 µM and the TGI [33] was over 25 µM. It also gave a GI50 [34] of 18.7 µM, a TGI [34] of over 25 µM and a GI50 [35] of 13.8 µM. The TGI [35] was over 25 µM, the GI50 [36] was 20.1 µM and the TGI [36] was over 25 µM. For the same compound, the GI50 [37] was 9.5 µM, the TGI [37] was over 25 µM and the GI50 [38] was 22.2 µM. The TGI [38] was over 25 µM, the GI50 [39] was over 25 µM and the TGI [39] was over 25 µM. It also gave a GI50 [40] of 8.21 µM, a TGI [40] of over 25 µM and a GI50 [41] of 12.6 µM. The TGI [41] was over 25 µM, the GI50 [42] was 13.5 µM and the TGI [42] was over 25 µM. It also gave a GI50 [43] of 21.8 µM, a TGI [43] of over 25 µM and a GI50 [44] of over 25 µM. For the same compound, the TGI [44] was over 25 µM, the GI50 [45] was 11.7 µM and the TGI [45] was over 25 µM. The GI50 [46] was 13 µM, the TGI [46] was over 25 µM and the GI50 [47] was 12.2 µM. The TGI [47] was over 25 µM, the GI50 [48] was over 25 µM and the TGI [48] was over 25 µM. The GI50 [49] was 10.1 µM, the TGI [49] was over 25 µM and the GI50 [50] was 11.4 µM. It also gave a TGI [50] of over 25 µM, a GI50 [51] of 9.27 µM and a TGI [51] of over 25 µM. For the same compound, the GI50 [52] was 7.06 µM, the TGI [52] was over 21.7 µM and the GI50 [53] was 7.08 µM. It also gave a TGI [53] of over 25 µM, a GI50 [54] of 10.1 µM and a TGI [54] of over 25 µM. The GI50 [55] was 18 µM, the TGI [55] was over 25 µM and the GI50 [56] was 7.24 µM. For the same compound, the TGI [56] was over 25 µM, the GI50 [57] was 11 µM and the TGI [57] was over 25 µM.
